Measurements reported in publication PMC6130577, “Rational screening of peroxisome proliferator-activated receptor-γ agonists from natural products: potential therapeutics for heart failure” (Pharmaceutical Biology, 2016).
Where two headings read alike, the source gives them in different places. Each block holds one molecule with its values, some of them ahead of it.

How the values were obtained:
[1] = system: PPARγ; conditions: cited from earlier work
[2] = molecular target: T1, human PPARγ (hPPARγ) (Homo sapiens, UniProt P37231); assay: Transactivation reporter assay (chimeric GAL4-PPAR reporter-gene assay in CV-1 cells); type: cell-based; conditions: for EC50: CV-1 cells, 48 h, luciferase, triplicate
T1 construct: expressed in transfected cells; host or cells: CV-1 cells
T1 sequence (P37231 238-503 limits assumed): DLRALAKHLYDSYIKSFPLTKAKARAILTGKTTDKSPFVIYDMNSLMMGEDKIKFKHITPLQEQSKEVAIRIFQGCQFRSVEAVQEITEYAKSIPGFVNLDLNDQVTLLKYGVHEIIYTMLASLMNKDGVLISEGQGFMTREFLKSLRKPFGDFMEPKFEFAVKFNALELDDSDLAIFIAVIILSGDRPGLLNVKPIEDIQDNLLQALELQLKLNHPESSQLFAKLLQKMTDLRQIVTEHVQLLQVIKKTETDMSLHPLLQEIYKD
Method: Briefly, chimeric receptor expression plasmid pcDNA3-hPPARγ/GAL4 was prepared by inserting the yeast GAL4 transcription factor DNA-binding domain adjacent to the hPPARγ LBD domain. The reporter plasmid, p(UAS)5-tk-luc, was generated by inserting five copies of the GAL4 response element upstream of the herpesvirus minimal thymidine kinase promoter and the luciferase reporter gene. The chimeric receptor expression plasmid and reporter plasmid were cotransfected into CV-1 cells. The transfected cells were cultured with or without each tested compound for 48 h and then steady-state luminescence intensity was measured with a microplate luminometer (Turner Biosystems). All compounds were purchased from Sigma-Aldrich and ChemPartner, and dissolved in dimethyl sulfoxide (<0.1% v/v). Each assay was carried out in triplicate.

[3] = literature value, ref Xu et al. [2001], read-out: Agonistic activity EC50

Structure (SMILES): COC(=O)/C(=C/c1cc(OC)cc(OC)c1)c1ccc(Oc2ccc(CC3SC(=O)NC3=O)cc2)cc1 (stereo not drawn) [CLX-0921]
EC50 ([1]; literature value, ref Dey et al. [2003], read-out: Agonistic activity EC50): 284 nM

Structure (SMILES): CC1(COc2ccc(CC3SC(=O)NC3=O)cc2)CCCCC1 (stereo not drawn) [Ciglitazone]
EC50 ([1]; literature value, ref Willson et al. [1996], read-out: Agonistic activity EC50): 3000 nM

Structure (SMILES): CC(C)O[C@@H](Cc1cccc(OC[C@H](F)COc2ccc(Cl)cc2C#N)c1)C(=O)O [E3030]
EC50 ([1]; literature value, ref Kasai et al. [2008], read-out: Agonistic activity EC50): 34 nM

Structure (SMILES): CCCCc1nc(Cl)c(C=O)n1Cc1ccc(-c2ccccc2-c2nn[nH]n2)cc1 [EXP3179]
EC50 ([1]; literature value, ref Schupp et al. [2006], read-out: Agonistic activity EC50): 17000 nM

Structure (SMILES): C/C(=C/C(=O)c1ccccc1)N[C@@H](Cc1ccc(OCCc2nc(-c3ccccc3)oc2C)cc1)C(=O)O [GW409544]
EC50 [1, 3]: 0.28 nM

Structure (SMILES): CN(CCOc1ccc(CC2SC(=O)NC2=O)cc1)c1ccccn1 (stereo not drawn) [Rosiglitazone]
EC50 [1, 3]: 18 nM
EC50 ([1]; previous report, ref Xu et al. [2001], read-out: EC50 (converted)): 18 nM

Agonistic intensity [2]: 78%
EC50 [2]: 350 ± 60 nM
Structure (SMILES): O=C(N/N=C/c1ccc(-c2ccc([N+](=O)[O-])cc2)o1)c1ccccc1 [ZINC44179]

Agonistic intensity [2]: 116%
EC50 [2]: 84 ± 15 nM
Structure (SMILES): CC1=NN(CN2CCOCC2)C(=O)/C1=N\Nc1ccc(C(=O)O)cc1 [ZINC13408172]
